Entries after “also recorded” stand apart in the source; their conditions may differ.
Experiments:
RBM39 mRNA = experiment: qPCR quantification of RBM39 mRNA; format: cell-based, human; conditions: HCT-116 cells after indisulam treatment
Protocol: RNAs isolated from indisulam or siRNA treated cells were first treated with Turbo DNase (Life Technologies) to remove contaminating genomic DNA. After RNA cleanup with Quick-RNA MiniPrep kit (Zymo Research), 500 ng of total RNAs was converted into cDNAs with Multiscribe reverse transcriptase (Life Technologies). Exon skipping in TRIM27 was visualized by PCR amplification with 5′-[…]-3′ (SEQ ID NO: 3) and 5′-[…]-3′ (SEQ ID NO: 4) from cDNAs. […] Relative RNA levels were calculated based on 2^−ct method using Cyclophilin mRNA for normalization. The following primers were used for quantification of mRNA levels: […]
For measurement of RBM39 mRNA levels, the following primers were used: […]

[1] = tested on: pre-mRNA splicing in HCT-116 cells; experiment: RNA-seq analysis of splicing changes, parental HCT-116; format: cell-based, human; conditions: 2 μM indisulam
Source text: (§1) RNAs were extracted using Quick-RNA MiniPrep kit (Zymo Research). After cleaning up genomic DNA contaminant with Turbo DNase (Life Technologies) and rRNA depletion, strand-specific cDNA libraries were generated using the TruSeq Stranded mRNA Sample Prep Kit (IIlumina) and were subjected to high throughput sequencing using
(§2) HiSeq2500 platform (Illumina) with 100-bp single-end reads. NGS QC Toolkit (v2.3.1) (49) was used to check the sequencing quality, and high-quality reads were aligned by TopHat (v2.0.8) (50) to human reference genome (hg19) along with the gene annotation data downloaded from Illumina's iGenomes (support.illumina.com/sequencing/sequencing_software/igenome.ilmn). The insert-size metrics required in TopHat execution and the correctness of strand specificity were estimated by mapping reads to human transcript sequences using Bowtie (v2.1.0) (51) and Picard-tools (v1.99) (picard.sourceforge.net). The htseq-count script distributed with the HTSeq Python package (0.6.1) (pypi.python.org/pypi/HTSeq) was employed for counting reads in genes considering the coding strands. Source data for RNA sequencing data is available under NCBI SRA accession SRP096666.
For the stringent detection of differential skipped exons and retained introns, a custom program called SpliceFisher was developed and it is downloadable at github.com/jiwoongbio/SpliceFisher. Exonic and intronic regions were defined as annotated in the reference genome. To estimate differential exon skipping events, the numbers of exon-junction reads (panels a and b in FIG. 16) and exon-skipping reads (panel c in FIG. 16) observed in a sample were compared to the numbers observed in another sample. […] Additionally, the number of reads mapped to the target region (panel d in FIG. 16) and other exonic regions of the gene (panel e in FIG. 16) were also compared between samples. The read counts were evaluated by multiple Fisher's exact tests in three two-by-two tables using R and then the p-values were adjusted using FDR by each comparison type. Differential alternative splicing events were identified with all three adjusted p-values less than 0.01. The differential alternative splice sites and mutually exclusive exons were additionally detected by a similar method using the numbers of splicing reads supporting each junction.

[2] = biological target: T1, RBM39-3xFLAG G268V with CUL4-DCAF15 complex (Homo sapiens, UniProt Q14498+Q66K64, G268V); experiment: In vitro formation of complex in lysates, G268V; format: binding; conditions: in the presence of 10 μM of indisulam
T1 construct: lysate derived from parental cells, RBM39-3xFLAG cells, or RBM39 G268V-3xFLAG cells; endogenous in cells; host or cells: HCT-116 RBM39 G268V-3xFLAG cells (treated cells in A91; lysates in A95)
Protocol: First, we reconstituted formation of the RBM39-CUL4-DCAF15 complex in vitro (FIG. 4, panel A).
Anti-Flag M2 antibody (Sigma-Aldrich) was coupled to Dynabeads M-270 epoxy beads (Life Technologies) at the ratio of 10 μg of antibody/mg beads. […] Frozen cells were then pulverized in the a cryomill (Retsch) with one 25 mm steel ball and five cycles of three min at 25 Hz with intermittent cooling in liquid nitrogen. […] The lysates were centrifuged at 8000 g for 5 min at 4° C. 12 mg of conjugated Anti-Flag magnetic beads were mixed with clarified lysates for 5 min at 4° C. on a rotating platform, followed by three washes with IP buffer. Bound proteins were eluted with 1 mg/ml 3xFLAG peptide, followed by SDS-PAGE on a 10% Bis Tris gel. After brief electrophoresis, bands containing all the proteins were cut with clean blades. For western blotting of co-immunoprecipitated proteins, anti-DDA1 (ProteinTech, 14995-1-AP, 1:1000), anti-DDB1 (Abcam, ab109027, 1;10000), anti-CUL4A (Cell Signaling, 2699, 1:1000), anti-CUL4B (ProteinTech, 12916-1-AP, 1:1000) were used.

human cancer cell lines = conditions: cited from earlier work
[3] = advanced stage patients with solid tumors; monotherapy; cited from earlier work
[4] = tested on: pre-mRNA splicing in HCT-116 cells harboring RBM39 G268V; experiment: RNA-seq analysis of splicing changes, RBM39 G268V; format: cell-based, human; conditions: 2 μM indisulam
Source text: as §1, §2
For the stringent detection of differential skipped exons and retained introns, a custom program called SpliceFisher was developed and it is downloadable at github.com/jiwoongbio/SpliceFisher. […]

758 cancer cell lines = conditions: CTD2 AUC values; cited from earlier work
[5] = tested on: tumors derived from parental HCT-116 cells; experiment: Mouse xenograft model, parental HCT-116; format: in vivo, Nod-Scid IL-2Rγ KO mice
Protocol: All animal work was approved by the Institutional Animal Care and Use Committee at UTSW. UTSW is accredited by the Association for Assessment and Accreditation of Laboratory Animal Care International (AAALAC). Animals were obtained from the UTSW Breeding Core Facility. Nod-Scid IL-2Rγ KO mice were implanted with 5 million parental HCT-116 cells or HCT-116 cells expressing RBM39 G268V in a volume of 0.1 ml in the left flank. Tumor volumes were measured every 2-4 days with calipers. Volume is calculated as (L*W^2)*3.14)/6.

[6] = tested on: non-small cell lung cancer cell lines; experiment: IC50 assay, U2AF1 S34F vs wild type NSCLC cell lines; format: cell-based, human; conditions: four S34F vs sixty-six wild type lines; p=0.01
Protocol: Cells were plated at ˜15% confluence in a media comprising 5% concentration of fetal bovine serum supplemented with RPMI, which included 2 mM L-Glutamine in a 96 well dish. […] Following three days of incubation in a 5% CO2 incubator, the total ATP in each well was quantified using Cell Titer Glo (Promega). […] The solid lines represent the medians.

Which “RBM39 mRNA” value (RBM39 mRNA) does the source give for `NS(=O)(=O)c1ccc(S(=O)(=O)Nc2cccc3c(Cl)c[nH]c23)cc1` [Indisulam, indisulam] here?
The value was “no dose dependent decrease”.

And the exon skipping events ([1]; 6 hours)?
Its exon skipping events is 327.

What about the introns retained ([1]; 6 hours) of the same compound?
The introns retained was 107.

And the exon skipping events ([1]; 12 hours)?
Its exon skipping events is 837.

What about the introns retained ([1]; 12 hours) of the same compound?
Its introns retained is 303.

What about the “co-purification of RBM39-3xFLAG G268V with CUL4-DCAF15 complex” value [2] of the same compound?
Its value is “did not co-purify”.

What about the “effect on cell cycle” value (human cancer cell lines) of the same compound?
Its value is “cell cycle arrest in the G1 phase followed by cell death”.

And the stable disease [3]?
The stable disease was 17-36 % of patients.

What about the exon skipping events ([4]; HCT-116 RBM39 G268V) of the same compound?
The exon skipping events was 3.

And the intron retention events ([4]; cells expressing the RBM39 G268V allele)?
The intron retention events was “no intron retention event”.

What about the “sensitivity to indisulam amongst hematopoietic and lymphoid (HL) lineage cell lines” value (758 cancer cell lines) of the same compound?
Its value is “significantly enriched”.

What about the tumor response ([5]; 25 mg/kg indisulam intravenous once a day for eight days) of the same compound?
Its tumor response is “complete regression; also recorded: regress”.

And the “Average maximal weight loss from start of therapy to 1 day post final dose” value ([5]; parental HCT-116 xenograft, 25 mg/kg once a day for eight days)?
The value was 5.2%.

And the “sensitivity of U2AF1 S34F vs U2AF1 wild type NSCLC cell lines” value [6]?
The value was “more sensitive”.
